Data on 19 compounds can be found in US8461328B2, “Tricyclic heterocyclic compounds, compositions and methods of use thereof” (Genentech, Inc., priority 2010, dated 2013).

Common to all, as to type: biochemical
One assay has as its target T1, JAK2 (Homo sapiens, UniProt O60674).
T1 construct: made in house; host or cells: SF9 insect cells (baculovirus)
The experiment in a line: JAK2 inhibition (Table 4). To be noted: read-out: JAK2 Ki.

In the next assay the target is T2, JAK1 (Homo sapiens, UniProt P23458).
T2 construct: made in house; host or cells: SF9 insect cells (baculovirus)
T2 sequence (P23458 852-1154): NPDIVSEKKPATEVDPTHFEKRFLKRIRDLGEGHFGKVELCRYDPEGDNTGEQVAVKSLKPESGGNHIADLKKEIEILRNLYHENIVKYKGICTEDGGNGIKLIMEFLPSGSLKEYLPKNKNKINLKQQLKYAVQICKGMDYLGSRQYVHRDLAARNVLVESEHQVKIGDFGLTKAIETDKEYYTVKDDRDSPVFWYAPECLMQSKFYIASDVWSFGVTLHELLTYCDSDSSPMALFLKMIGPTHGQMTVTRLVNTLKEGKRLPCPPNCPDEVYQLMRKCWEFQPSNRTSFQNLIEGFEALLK
Description: JAK1 inhibition (Table 4). To be noted: read-out: JAK1 Ki.

In a further assay the target is T3, TYK2 (Homo sapiens, UniProt P29597).
T3 construct: made in house; host or cells: SF9 insect cells (baculovirus)
T3 sequence (P29597 873-1187): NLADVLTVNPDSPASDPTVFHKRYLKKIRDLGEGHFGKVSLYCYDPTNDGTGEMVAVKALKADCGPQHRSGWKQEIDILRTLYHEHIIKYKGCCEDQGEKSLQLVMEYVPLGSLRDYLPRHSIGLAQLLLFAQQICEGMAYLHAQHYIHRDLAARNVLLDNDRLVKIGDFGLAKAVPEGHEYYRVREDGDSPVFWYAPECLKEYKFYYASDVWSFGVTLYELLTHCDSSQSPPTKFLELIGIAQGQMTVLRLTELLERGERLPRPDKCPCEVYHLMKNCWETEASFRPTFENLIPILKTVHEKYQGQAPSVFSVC
Description: TYK2 inhibition (Table 4).

A further assay deals with T4, JAK3 (Homo sapiens, UniProt P52333).
T4 construct: made in house; host or cells: SF9 insect cells (baculovirus)
T4 sequence (P52333 783-1124): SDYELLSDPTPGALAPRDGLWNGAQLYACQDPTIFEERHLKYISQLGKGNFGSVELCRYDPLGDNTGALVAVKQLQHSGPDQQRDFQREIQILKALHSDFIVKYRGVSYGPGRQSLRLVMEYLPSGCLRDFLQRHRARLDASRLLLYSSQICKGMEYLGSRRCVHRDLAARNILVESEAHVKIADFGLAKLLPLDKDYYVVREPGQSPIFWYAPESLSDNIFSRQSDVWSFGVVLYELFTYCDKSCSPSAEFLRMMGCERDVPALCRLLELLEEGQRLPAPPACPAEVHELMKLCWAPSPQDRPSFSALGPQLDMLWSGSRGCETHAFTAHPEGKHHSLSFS
Description: JAK3 inhibition (Table 4). To be noted: read-out: JAK3 Ki.

Structures are written as SMILES. Structures can show the parent of a compound that is named as a salt.

T1 sequence (O60674 812-1132): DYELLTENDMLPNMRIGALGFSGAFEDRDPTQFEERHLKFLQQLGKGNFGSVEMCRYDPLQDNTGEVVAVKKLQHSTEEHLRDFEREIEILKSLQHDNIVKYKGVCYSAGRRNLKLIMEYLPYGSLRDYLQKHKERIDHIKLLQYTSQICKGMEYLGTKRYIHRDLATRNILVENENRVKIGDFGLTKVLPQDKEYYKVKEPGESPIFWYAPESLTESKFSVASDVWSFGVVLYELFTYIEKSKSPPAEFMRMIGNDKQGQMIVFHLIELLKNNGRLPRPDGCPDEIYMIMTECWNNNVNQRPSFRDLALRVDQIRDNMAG

On to `CC(C)NC(=O)[C@H]1CC[C@H](n2cnc3cnc4[nH]ccc4c32)CC1` [Example 247, 4-(6H-1,3,5,6-Tetraaza-as-indacen-1-yl)-cyclohexanecarboxylic acid isopropylamide], for which the Ki turned out to be 136 nM at JAK2, 32.2 nM on JAK1, 358 nM at TYK2 and 245 nM on JAK3.
Taken in the same sequence, the figures for `CN(C(=O)Cc1nc2cnc3[nH]ccc3c2n1C1CCN(CCC#N)CC1)C1CCCC1` [Example 263, 2-{1-[1-(2-Cyano-ethyl)-piperidin-4-yl]-1,6-dihydro-1,3,5,6-tetraaza-as-indacen-2-yl}-N-cyclopentyl-N-methyl-acetamide] were 152 nM, 55.3 nM, 401 nM and 19.1 nM.
On to `CN1CCOCC1C(=O)N1CCC(n2cnc3cnc4[nH]ccc4c32)CC1` (single isomer, unassigned) [Example 197a, (4-Methyl-morpholin-3-yl)-[4-(6H-1,2,3,5,6-tetraaza-as-indacen-1-yl)-piperidin-1-yl]-methanone], for which the Ki is 217 nM at JAK2, 122 nM on JAK1, 2720 nM at TYK2 and 1930 nM at JAK3.
With `CN(C)c1nc2cnc3[nH]ccc3c2n1C1CCN(CCC#N)CC1` [Example 656, 3-[4-(2-Dimethylamino-6H-1,2,3,5,6-tetraaza-as-indacen-1-yl)-piperidin-1-yl]-propionitrile], the Ki amounted to 77 nM at JAK2, 14.6 nM on JAK1, 420 nM on TYK2 and 37.7 nM on JAK3.
In the same order, the values of `Cc1nc2cnc3[nH]ccc3c2n1C1CCN(CC(F)F)CC1` [Example 762, 1-[1-(2,2-Difluoro-ethyl)-piperidin-4-yl]-2-methyl-1,6-dihydro-1,3,5,6-tetraaza-as-indacene] are 2.65 nM, 0.89 nM, 4.88 nM and 5.51 nM.
`CC1(n2cnc3cnc4[nH]ccc4c32)CCCN(C(=O)CC#N)C1` (racemic) [Example 706, 3-[3-Methyl-3-(6H-1,2,3,5,6-tetraaza-as-indacen-1-yl)-piperidin-1-yl]-3-oxo-propionitrile]: the Ki was 67.5 nM on JAK2, 28.1 nM on JAK1, 207 nM on TYK2 and 20.6 nM at JAK3.
In the same order, the values of `Cc1nc2cnc3[nH]ccc3c2n1[C@@H]1CCC[C@](C)(O)C1` [Example 890, (1S,3R)-1-Methyl-3-(2-methyl-6H-1,3,5,6-tetraaza-as-indacen-1-yl)-cyclohexanol] are 38.1 nM, 37.6 nM, 133 nM and 36.9 nM.
Taken in the same sequence, the figures for `OC[C@]1(O)CC[C@@H](n2nnc3cnc4[nH]ccc4c32)CC1` [Example 716, Cis-1-Hydroxymethyl-4-(6H-1,2,3,5,6-pentaaza-as-indacen-1-yl)-cyclohexanol] were 23.3 nM, 10.6 nM, 74.3 nM and 167 nM.
Regarding `COCCN1CCC(n2cnc3cnc4[nH]ccc4c32)CC1` [Example 63, 1-[1-(2-Methoxy-ethyl)-piperidin-4-yl]-1,6-dihydro-1,3,5,6-tetraaza-as-indacene], the inhibition constant (Ki) on JAK2 was determined as 12 nM; on JAK1 it was 7.54 nM; on TYK2, 73.9 nM; on JAK3 it was 96.5 nM.
For the compound `O=c1ccn(Cc2nc3cnc4[nH]ccc4c3n2C2CCOCC2)c(=O)[nH]1` [Example 470, 1-[1-(Tetrahydro-pyran-4-yl)-1,6-dihydro-1,3,5,6-tetraaza-as-indacen-2-ylmethyl]-1H-pyrimidine-2,4-dione], the inhibition constant Ki at JAK2 amounted to 557 nM; at JAK1 it was 196 nM; on TYK2 it was 357 nM; on JAK3 it was 64.8 nM.
In the same order, the values of `Cc1cc(CN2CCC(n3c([C@@H](C)O)nc4cnc5[nH]ccc5c43)CC2)no1` [Example 899, (R)-1-{1-[1-(5-Methyl-isoxazol-3-ylmethyl)-piperidin-4-yl]-1,6-dihydro-1,3,5,6-tetraaza-as-indacen-2-yl}-ethanol] are 32.1 nM, 3.32 nM, 140 nM and 6.73 nM.
On to `C[C@@H](O)c1nc2cnc3[nH]ccc3c2n1[C@@H]1CCCN(C(=O)C2CCOCC2)C1` [Example 783, {(R)-3-[2-((R)-1-Hydroxy-ethyl)-6H-1,3,5,6-tetraaza-as-indacen-1-yl]-piperidin-1-yl}-(tetrahydro-pyran-4-yl)-methanone], for which the Ki at JAK2 is 1460 nM; at JAK1, 137 nM; at TYK2, 1790 nM; at JAK3, 2660 nM.
With `N#CCCN1CCC(n2c(CC(=O)NC3CCCC3)nc3cnc4[nH]ccc4c32)CC1` [Example 268, 2-{1-[1-(2-Cyano-ethyl)-piperidin-4-yl]-1,6-dihydro-1,3,5,6-tetraaza-as-indacen-2-yl}-N-cyclopentyl-acetamide], the Ki stood at 16.1 nM on JAK2, 5.06 nM at JAK1, 120 nM on TYK2 and 7.5 nM on JAK3.
In the same order, the values of `OC(c1nc2cnc3[nH]ccc3c2n1C1CCCCC1)C1CCOCC1` (racemic) [Example 875, (1-Cyclohexyl-1,6-dihydro-1,3,5,6-tetraaza-as-indacen-2-yl)-(tetrahydro-pyran-4-yl)-methanol] are 290 nM, 35 nM, 86.2 nM and 95.5 nM.
In the same order, the values of `COCCNC1CCC(n2nnc3cnc4[nH]ccc4c32)C1` (racemic) [Example 618, Racemic trans (2-methoxy-ethyl)-[3-(6H-1,2,3,5,6-pentaaza-as-indacen-1-yl)-cyclopentyl]-amine hydrochloride] are 446 nM, 138 nM, 1440 nM and 942 nM.
In the same order, the values of `Cc1nc2cnc3[nH]ccc3c2n1C1CCS(=O)(=O)CC1` [Example 210, 1-(1,1-Dioxo-hexahydro-1-thiopyran-4-yl)-2-methyl-1,6-dihydro-1,2,3,5,6-tetraaza-as-indacene] are 642 nM, 147 nM, 514 nM and 646 nM.
Turning to `CC(C)(C#N)C(=O)N1CCC[C@@H](n2cnc3cnc4[nH]ccc4c32)C1` [Example 297, 2,2-Dimethyl-3-oxo-3-[(R)-3-(6H-1,3,5,6-tetraaza-as-indacen-1-yl)-piperidin-1-yl]-propionitrile], the Ki on JAK2 came out at 5.28 nM; on JAK1, 3.91 nM; on TYK2 it was 31.5 nM; at JAK3 it was 21 nM.
Taken in the same sequence, the figures for `N#CCCN1CCC(n2c(CCNC(=O)c3ccc(F)cc3)nc3cnc4[nH]ccc4c32)CC1` [Example 373, N-(2-{1-[1-(2-Cyano-ethyl)-piperidin-4-yl]-1,6-dihydro-1,3,5,6-tetraaza-as-indacen-2-yl}-ethyl)-4-fluoro-benzamide] were 27 nM, 4.07 nM, 120 nM and 52 nM.
With `O=C(c1ccccc1)N1CCC[C@@H](n2cnc3cnc4[nH]ccc4c32)C1` [Example 6, Phenyl-[(R)-3-(6H-1,2,3,5,6-tetraaza-as-indacen-1-yl)-piperidin-1-yl]-methanone], the Ki came out at 21.4 nM on JAK2, 11.9 nM on JAK1, 134 nM at TYK2 and 373 nM on JAK3.
